According to patent publication US9493461B2, “Tetracyclic heterocycle compounds and methods of use thereof for the treatment of hepatitis C” (priority 2013, dated 2016):

Legend:
HCV replicon genotype 1b = test: HCV replicon assay, genotype 1b (cell ELISA for replicon-encoded NS3/4A); assay type: cell-based, hepatitis C virus (HCV); conditions: Hepatitis C virus, 96 h, read-out: 1b IC50 (nM), genotype 1b replicon cells, 96 hours incubation, NS3/4A ELISA readout, % of DMSO control
Method in brief: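 Genotype 1b replicon cells (neomycin-selected, G418 removed for assay) incubated 96 h with compound dilution series. Replication measured by cell ELISA for replicon-encoded NS3/4A after lysis; IC50 from four-parameter fit relative to DMSO control.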

HCV replicon genotype 1a = test: HCV replicon assay, genotype 1a (cell ELISA for replicon-encoded NS3/4A); assay type: cell-based, hepatitis C virus (HCV); conditions: Hepatitis C virus, 96 h, read-out: 1a IC50 (nM), genotype 1a replicon cells, 96 hours incubation, NS3/4A ELISA readout, % of DMSO control
Method in brief: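 Stable G418-selected neomycin-resistant HCV replicon cells were plated with serially diluted compound without G418 and incubated 96 h. After washing and lysis, replicon RNA was measured indirectly by cell ELISA for replicon-encoded NS3/4A; IC50 from four-parameter fit relative to DMSO control.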

SMILES | IC50 (HCV replicon genotype 1b) [nM] | IC50 (HCV replicon genotype 1a) [nM]
CNC(=O)c1c(-c2ccc(F)cc2)oc2cc(N(C)S(C)(=O)=O)c(-c3ccc4c(n3)-c3cc5c(F)cccc5n3C(C)N4)cc12 (stereo not shown) [Example 61, 5-(11-fluoro-6-methyl-5,6-dihydropyrido[3′,2′:4,5]pyrimido[1,6-a]indol-2-yl)-2-(4-fluorophenyl)-N-methyl-6-(N-methylmethylsulfonamido)benzofuran-3-carboxamide] | 3.01 | 2.6
CNC(=O)c1c(-c2ccc(F)cc2)oc2cc(N(C)S(C)(=O)=O)c(-c3ccc4nc(CC5CC[C@H](OC)C5)n5c6cccc(C#N)c6cc5c4n3)cc12 (stereo partly shown) [Example 132] | 3.5 | 2.83
CNC(=O)c1c(-c2ccc(C)nc2)oc2cc(N(C)S(C)(=O)=O)c(-c3ccc4nc(CN5CC(F)C5)n5c6cccc(F)c6cc5c4n3)cc12 [Example 28, 5-(11-fluoro-6-((3-fluoroazetidin-1-yl)methyl)pyrido[3′,2′:4,5]pyrimido[1,6-a]indol-2-yl)-N-methyl-6-(N-methylmethylsulfonamido)-2-(6-methylpyridin-3-yl)benzofuran-3-carboxamide] | 5.38 | 15.2
CNC(=O)c1c(-c2ccc(F)cc2F)oc2cc(N(C)S(C)(=O)=O)c(-c3ccc4nc(CN5CCC(F)(F)C5)n5c6cccc(F)c6cc5c4n3)cc12 [Example 46] | 11.3 | 7.76
CNC(=O)c1c(-c2ccc(F)cc2)oc2cc(N(C)S(C)(=O)=O)c(-c3cc4c(cn3)nc(CN3CCOCC3)n3c5cccc(F)c5cc43)cc12 [Example 112] | 3.45 | 2.02
CNC(=O)c1c(-c2ccc(F)cc2)oc2cc(N(C)S(C)(=O)=O)c(-c3ccc4c(n3)-c3cc5c(F)cccc5n3CN4CC(=O)OC)cc12 [Example 69, methyl 2-(11-fluoro-2-(2-(4-fluorophenyl)-3-(methylcarbamoyl)-6-(N-methylmethylsulfonamido)benzofuran-5-yl)pyrido[3′,2′:4,5]pyrimido[1,6-a]indol-5(6H)-yl)acetate] | 6.04 | 9.69
CNC(=O)c1c(-c2ccc(F)cc2F)oc2cc(N(C)S(C)(=O)=O)c(-c3ccc4nc(CN5CCN(C)CC5)n5c6cccc(F)c6cc5c4n3)cc12 [Example 147] | 3.99 | 3.48
CNC(=O)c1c(-c2ccc(F)cc2F)oc2cc(N(C)S(C)(=O)=O)c(-c3ccc4nc(CN5CC(C)(F)C5)n5c6cccc(F)c6cc5c4n3)cc12 [Example 140] | 4.31 | 2.95
CNC(=O)c1c(-c2ccc(F)cc2)oc2cc(N(C)S(C)(=O)=O)c(-c3ccc4[nH]c(=O)n5c6ccc(F)cc6cc5c4n3)cc12 [Example 21, 5-(10-fluoro-6-oxo-5,6-dihydropyrido[3′,2′:4,5]pyrimido[1,6-a]indol-2-yl)-2-(4-fluorophenyl)-N-methyl-6-(N-methylmethylsulfonamido)benzofuran-3-carboxamide] | 8.74 | 7.61
CNC(=O)c1c(-c2ccc(F)cc2F)oc2cc(N(C)S(C)(=O)=O)c(-c3ccc4nc(CC5CC6(CNC(=O)C6)C5)n5c6cccc(F)c6cc5c4n3)cc12 (stereo not shown) [Example 137] | 5.04 | 6.67
CNC(=O)c1c(-c2ccc(F)cc2)oc2cc(N(C)S(C)(=O)=O)c(-c3ccc4c(n3)-c3cc5c(F)cccc5n3CN4)cc12 [Example 56, 5-(11-fluoro-5,6-dihydropyrido[3′,2′:4,5]pyrimido[1,6-a]indol-2-yl)-2-(4-fluorophenyl)-N-methyl-6-(N-methylmethylsulfonamido)benzofuran-3-carboxamide] | 5.32 | 5.26
CNC(=O)c1c(-c2ccc(F)cc2)oc2cc(N(C)S(C)(=O)=O)c(-c3cc4c(cn3)ncn3c5cccc(F)c5cc43)cc12 [Example 74, 2-(4-fluorophenyl)-5-(11-fluoropyrido[3′,4′:4,5]pyrimido[1,6-a]indol-2-yl)-N-methyl-6-(N-methylmethylsulfonamido)benzofuran-3-carboxamide] | 3.07 | 1.21
CNC(=O)c1c(-c2ccc(F)cc2)oc2cc(N(C)S(C)(=O)=O)c(-c3ccc4nc(CN5CC(C)(F)C5)n5c6cccc(F)c6cc5c4n3)cc12 [Example 81] | 3.28 | 3.24
CNC(=O)c1c(-c2ccc(F)cc2)oc2cc(N(C)S(C)(=O)=O)c(-c3ccc4nc(CN5CC(C)(OC)C5)n5c6cccc(C#N)c6cc5c4n3)cc12 [Example 126] | 2.72 | 2.24
CNC(=O)c1c(C(=O)N2CC(F)C2)oc2cc(N(C)S(C)(=O)=O)c(-c3ccc4ncn5c6cccc(F)c6cc5c4n3)cc12 [Example 50, 2-(3-fluoroazetidine-1-carbonyl)-5-(11-fluoropyrido[3′,2′:4,5]pyrimido[1,6-a]indol-2-yl)-N-methyl-6-(N-methylmethylsulfonamido)benzofuran-3-carboxamide] | 19.8 | 18.1
CNC(=O)c1c(-c2ccc(F)cc2)oc2cc(N(C)S(C)(=O)=O)c(-c3ccc4nc(C(=O)OC)n5c6cccc(F)c6cc5c4n3)cc12 [Example 62, methyl 11-fluoro-2-(2-(4-fluorophenyl)-3-(methylcarbamoyl)-6-(N-methylmethylsulfonamido)benzofuran-5-yl)pyrido[3′,2′:4,5]pyrimido[1,6-a]indole-6-carboxylate] | 12.2 | 8.67
CNC(=O)c1c(-c2ccc(F)cc2)oc2cc(N(C)S(C)(=O)=O)c(-c3ccc4nc(C(C)N5CC(F)C5)n5c6cccc(F)c6cc5c4n3)cc12 (single isomer, unassigned) [Example 39, (R or S)-5-(11-fluoro-6-(1-(3-fluoroazetidin-1-yl)ethyl)pyrido[3′,2′:4,5]pyrimido[1,6-a]indol-2-yl)-2-(4-fluorophenyl)-N-methyl-6-(N-methylmethylsulfonamido)benzofuran-3-carboxamide] | 6.08 | 6.37
CNC(=O)c1c(-c2ccc(F)cc2)oc2cc(N(C)S(C)(=O)=O)c(-c3ccc4nc(CN5CC[C@H](O)C5)n5c6cccc(F)c6cc5c4n3)cc12 [Example 83] | 1.31 | 1.33
CNC(=O)c1c(-c2ccc(F)cc2)oc2cc(N(C)S(C)(=O)=O)c(-c3ccc4nc(Cn5cncn5)n5c6cccc(F)c6cc5c4n3)cc12 [Example 116] | 1.7 | 1.88
CNC(=O)c1c(-c2ccc(F)cc2F)oc2cc(N(C)S(C)(=O)=O)c(-c3ccc4nc(CN5CCC[C@H]5C(F)(F)F)n5c6cccc(F)c6cc5c4n3)cc12 [Example 145] | 12.2 | 20
CNC(=O)c1c(-c2ccc(F)cc2F)oc2cc(N(C)S(C)(=O)=O)c(-c3ccc4ncn5c6cccc(F)c6cc5c4n3)cc12 [Example 9, 2-(2,4-difluorophenyl)-5-(11-fluoropyrido[3′,2′:4,5]pyrimido[1,6-a]indol-2-yl)-N-methyl-6-(N-methylmethylsulfonamido)benzofuran-3-carboxamide] | 1.99 | 1.16
CNC(=O)c1c(-c2ccc(F)cc2)oc2cc(N(C)S(C)(=O)=O)c(-c3ccc4nc(CN5CCN(C(C)=O)CC5)n5c6cccc(F)c6cc5c4n3)cc12 [Example 105] | 3.79 | 2.6
CNC(=O)c1c(-c2ccc(F)cc2)oc2cc(N(C)S(C)(=O)=O)c(-c3ccc4c(n3)-c3cc5c(F)cccc5n3C(CC(=O)O)N4)cc12 (stereo not shown) [Example 72, 2-(11-fluoro-2-(2-(4-fluorophenyl)-3-(methylcarbamoyl)-6-(N-methylmethylsulfonamido)benzofuran-5-yl)-5,6-dihydropyrido[3′,2′:4,5]pyrimido[1,6-a]indol-6-yl)acetic acid] | 15.6 | 22.8
CNC(=O)c1c(-c2ccc(F)cc2)oc2cc(N(C)S(C)(=O)=O)c(-c3ccc4nc(CN5CC(F)C5)n5c6cccc(F)c6cc5c4n3)cc12 [Example 76, 3-fluoro-1-((11-fluoro-2-(2-(4-fluorophenyl)-3-(methylcarbamoyl)-6-(N-methylmethylsulfonamido)benzofuran-5-yl)pyrido[3′,2′:4,5]pyrimido[1,6-a]indol-6-yl)methyl)azetidin-1-ium methanesulfonate] | 3.78 | 4.13
CNC(=O)c1c(-c2ccc(F)cc2)oc2cc(N(C)S(C)(=O)=O)c(-c3ccc4nc(CN5CC(O)(C(F)(F)F)C5)n5c6cccc(C#N)c6cc5c4n3)cc12 [Example 131] | 4.23 | 4.09
CCOP(=O)(Cc1nc2ccc(-c3cc4c(C(=O)NC)c(-c5ccc(F)cc5)oc4cc3N(C)S(C)(=O)=O)nc2c2cc3c(F)cccc3n12)OCC [Example 49, diethyl ((11-fluoro-2-(2-(4-fluorophenyl)-3-(methylcarbamoyl)-6-(N-methylmethylsulfonamido)benzofuran-5-yl)pyrido[3′,2′:4,5]pyrimido[1,6-a]indol-6-yl)methyl)phosphonate] | 4.88 | 2.78
CCc1ncc(-c2oc3cc(N(C)S(C)(=O)=O)c(-c4ccc5ncn6c7cccc(F)c7cc6c5n4)cc3c2C(=O)NC)s1 [Example 53, 2-(2-ethylthiazol-5-yl)-5-(11-fluoropyrido[3′,2′:4,5]pyrimido[1,6-a]indol-2-yl)-N-methyl-6-(N-methylmethylsulfonamido)benzofuran-3-carboxamide] | 6.37 | 7.79
CNC(=O)c1c(-c2ccc(F)cc2)oc2cc(N(C)S(C)(=O)=O)c(-c3ccc4nc(CN5CC(O)(C(F)(F)F)C5)n5c6cccc(F)c6cc5c4n3)cc12 [Example 94] | 6.98 | 4.33
CNC(=O)c1c(-c2ccc(F)cc2F)oc2cc(N(C)S(C)(=O)=O)c(-c3ccc4nc(CN5CC(F)(F)C5)n5c6cccc(F)c6cc5c4n3)cc12 [Example 48] | 3.04 | 2.82
